Reference: US11192849B2, “Compounds, compositions, and methods for modulating ferroptosis and treating excitotoxic disorders” (THE TRUSTEES OF COLUMBIA UNIVERSITY IN THE CITY OF NEW YORK, priority 2013, dated 2021)

Tests used:
[1] = system: rat corticostriatal brain slices, medium spiny neurons; test: Brain slice assay for HD (httN90Q73-transfected corticostriatal slices); type: cell-based; conditions: for number of healthy medium spiny neurons (MSNs): 10 nM, 100 nM and 1 μM, four days
Method: 250 μm corticostriatal brain slices were prepared from postnatal day 10 CD Sprague-Dawley rat pups (Charles River) as previously described (Hoffstrom et al., 2010). Brain slice explants were placed in interface culture in 6-well plates using culture medium containing 15% heat-inactivated horse serum, 10 mM KCl, 10 mM HEPES, 100 U/ml penicillin/streptomycin, 1 mM MEM sodium pyruvate, and 1 mM L-glutamine in Neurobasal A (Invitrogen) and maintained in humidified incubators under 5% CO2 at 32 deg. C. A custom-modified biolistic device (Helios Gene Gun; Bio-Rad) was used to transfect the brain slices with a human htt exon-1 expression construct containing a 73 CAG repeat (“HttN90Q73”) in the gWiz backbone (Genlantis) together with a YFP expression construct to visualize transfected neurons. Control brain slices were transfected with gWiz blank vector and YFP at the equivalent DNA amounts. After 4 days of incubation, MSNs were identified by their location within the striatum and by their characteristic dendritic morphology and scored as healthy if expressing bright and continuous YFP labeling throughout, normal-sized cell bodies, and >2 primary dendrites >2 cell bodies long, as previously described^21. Data were expressed as mean numbers of healthy MSNs per striatal region in each brain slice, with statistical significance tested by ANOVA followed by Dunnett's post hoc comparison test at the 0.05 confidence level. […]
Fer-1 attenuates lipid peroxidation and ferroptosis in cancer cells treated with small molecules that block cystine import or glutathione production, as well as cell death in rat organotypic hippocampal brain slices treated with toxic concentrations of glutamate, which also blocks cystine import (Dixon, et al., 2012). […] Four days later, the number of healthy medium spiny neurons (MSNs) was quantified, as previously described (Varma, et al., 2011, Hoffstrom, et al., 2010).

[2] = system: rat organotypic hippocampal slice culture (OHSC); test: Glutamate excitotoxic injury in organotypic hippocampal slice cultures (PI uptake); type: cell-based; conditions: 5 mM L-glutamate 3 hours; Fer-1 2 μM, CPX 5 μM, MK-801 10 μM; 24 hours
Method: OHSCs were cultured as previously described (Morrison et al., 2002) with approval from Columbia University's Institutional Animal Care and Use Committee (IACUC). Briefly, Sprague Dawley rat pups (P8-P10) were rapidly decapitated, and the hippocampus placed in ice-cold Gey's balanced salt solution (Sigma). 400 μm thick sections were cut using a Mcllwain tissue chopper and immediately plated on Millicell cell culture inserts (Millipore, Billerica, Mass.) in Neurobasal (Invitrogen) media supplemented with B27 (1×, Invitrogen), GlutaMAX (1 mM, Invitrogen), and D-glucose (4.5 mg/mL, Sigma) at 37° C. and 5% CO2. After 2 days in vitro (DIV), the media was changed to medium containing serum comprised of 50% DMEM (Sigma), 25% heat-inactivated horse serum (Sigma), 25% Hank's balanced salt solution (Sigma), GlutaMAX (1 mM, Invitrogen), and D-glucose (4.5 mg/mL, Sigma). Medium was changed every 2-3 days.
After 10-14 DIV, OBSCs were exposed to an excitotoxic injury consisting of a 3 hour exposure to 5 mM L-glutamate in SFM (Morrison et al., 2002). […] After the 3 hour exposure, the cultures were placed in fresh serum free media (SFM) containing 75% DMEM, 25% Hank's balanced salt solution, GlutaMAX (1 mM), D-glucose (4.5 mg/mL) until cell death was quantified at 24 hours. […]
Quantification of cell death has been described previously (Cater et al., 2007; Morrison et al., 2002). […] Percentage cell death was expressed as the number of pixels in the ROI above a threshold in the PI fluorescent image divided by the total number of pixels in the ROI.
OHSCs were treated with a lethal excitotoxic stimulus (5 mM L-glutamate, 3 hours) that mimics the consequences of stroke and neurodegenerative disease (Morrison et al., 2002; Sundstrom et al., 2005) (FIG. 5A). […] The effects of these compound treatments on propidium iodide (PI) uptake were analyzed, as an indicator of cell death, 24 hours following the end of glutamate treatment, in 3 defined regions of the OHSCs: the dentate gyrus (DG), the CA1 and the CA3 fields of the hippocampus.

Row | SMILES | number of healthy medium spiny neurons (MSNs) [1] | number of healthy MSNs versus controls ([1]; 1 μM) | glutamate-induced cell death (PI uptake) in DG, CA1, CA3 [2]
1 | CCOC(=O)c1ccc(NC2CCCCC2)c(N)c1 [SRS8-28 (Fer-1), ethyl 3-amino-4-(cyclohexylamino)benzoate] | significant increase in the number of healthy MSNs | statistically indistinguishable from both the YFP (no htt) control and the control inhibitor combination | attenuated significantly
2 | CCOC(=O)c1ccc(NC2CCCCC2)c(NCc2ccccc2)c1 [SRS11-92, ethyl 3-(benzylamino)-4-(cyclohexylamino)benzoate] | significant increase in the number of healthy MSNs | – | –
